Data reported in patent publication US20240299591A1, “Antimicrobial Peptides and Their Use” (priority 2021, published 2024).
Values after ≈ are worked out from the molar mass of the structure shown. Where a SMILES comes first, the peptide text is derived from it.

Assays:
S. aureus = type: cell-based, Staphylococcus aureus
Protocol: Bacteria strains used were grown on Lysogeny Broth (LB) agar at 37° C. for 1 day, and were harvest using sterile inoculation loop by taking a single colony and resuspending in PBST. The concentration of cells was quantified using a haemocytometer. For the determination of the minimum inhibitory concentration, cell density was adjusted to 10^8 cells/mL with 20% liquid LB medium.

A. fumigatus (MFIG001) = test: Minimum inhibitory concentration, A. fumigatus; type: cell-based, Aspergillus fumigatus; settings: 5 × 10^5, 10% Vogel's
Protocol: Aspergillus fumigatus strains were grown on Sabouraud dextrose agar (SAB agar) at 37° C. for 3 days. Conidia were collected in phosphate-buffered saline supplemented with 0.1% tween-20 (PBST) by gently scraping a spatula over the fungal colony surface. The spore solutions were then passed through autoclaved Miracloth to remove any hyphal residues and stored at 4° C. The spores were counted and the concentrations was determined in the same was as described for N. crassa.

C. albican = type: cell-based
Protocol: (§1) Candida strains used were grown on SAB agar at 37° C. for 3 days, and the Cryptococcus strain was grown on SAB agar at 37° C. for 6 days. Cells were harvest using sterile inoculation loop by taking a single colony and resuspending in phosphate-buffered saline supplemented with 0.1% tween-20 (PBST). The concentration of cells was then quantified with a haemocytometer. For the determination of the minimum inhibitory concentration, cell density was adjusted to 10^6 cells/mL with 20% liquid Vogel's medium.

C. auris = type: cell-based
Protocol: as §1

C. glabrata (NCPF 3309) = type: cell-based
Protocol: as §1

[1] = system: C. inconspicua (ATCC 16783); type: cell-based
Protocol: as §1

C. krusei (ATCC 6258) = type: cell-based
Protocol: as §1

[2] = Viability of reconstructed cornea-like epithelium (eye irritation model); type: cell-based; settings: human, reconstructed cornea-like epithelium (RhCE, EpiOcular™)
Protocol: (§2) FIG. 4a is a graph of the viability reconstructed cornea-like epithelium (RhCE, EpiOcular™) after incubation with MFIGA001. NC=Negative Control; PC=Positive Control. FIG. 4b is a graph of the viability reconstructed cornea-like epithelium (RhCE, EpiOcular™) after incubation with 10 µM of MFIGA001a and MFIGAF001b. NC=Negative Control; PC=Positive Control; A2=MFIGAF001a; and B1=MFIGAF001b.
(§3) MFIGAF001 was also assessed independently by a CRO (Evotec) in an OECD compliant reconstructed cornea-like epithelial cell model (RhCE, EpiOcular™).

[3] = system: reconstructed cornea-like epithelium (RhCE, EpiOcular™); test: as above; type: cell-based
Protocol: as §2, §3

A. fumigatus = test: Live cell imaging of A. fumigatus in co-cultures with A549; type: cell-based, Aspergillus fumigatus; settings: 2.5 µM, 10 min after addition, 37° C. in RPMI

N=C(N)NCCC[C@@H]1NC(=O)CNC(=O)[C@H](Cc2c[nH]c3ccccc23)NC(=O)[C@H](Cc2ccccc2)NC(=O)[C@H](Cc2c[nH]c3ccccc23)NC(=O)[C@@H](Cc2ccccc2)NC(=O)[C@H](CCCCN)NC(=O)[C@H](CCCCN)NC1=O [MFIGAF001, Cyclo(Arg-Lys-Lys-phe-Trp-Phe-Trp-Gly)] (HELM PEPTIDE1{F.W.G.R.K.K.[dF].W}$PEPTIDE1,PEPTIDE1,1:R1-8:R2$$$V2.0)
Antibacterial activity against Staphylococcus aureus (S. aureus): Antibacterial activity
MIC (S. aureus): 15.6 µM (≈ 17.7 µg/mL)
MIC (A. fumigatus (MFIG001)): 5 µM (≈ 5.68 µg/mL)
MIC (C. albican): 2 µM (≈ 2.27 µg/mL)
MIC (C. auris): 2 µM (≈ 2.27 µg/mL)
MIC (C. glabrata (NCPF 3309)): 3.9 µM (≈ 4.43 µg/mL)
MIC [1]: 2 µM (≈ 2.27 µg/mL)
MIC (C. krusei (ATCC 6258)): 3.9 µM (≈ 4.43 µg/mL)
viability at 100 µg/mL [2]: 87.3%
viability at 200 µg/mL [2]: 87.2%
viability at 400 µg/mL [2]: 88.6%
viability at 500 µg/mL [2]: 93.7%
Toxicity, reconstructed cornea-like epithelium (FIG. 4) [3]: no obvious toxicity
Selective labelling of A. fumigatus over A549 (A. fumigatus): selectively labels A. fumigatus
